Test results: patent US11932870B2, “Compositions and methods for immune cell modulation in adoptive immunotherapies” (Fate Therapeutics, Inc., priority 2016, dated 2024)
Structures can show the parent of a compound that is named as a salt.

Tests used:
viable CD8+ population = assay: T cell compound screen: CCR7+CD62L+ cells in the viable CD8+ population (flow cytometry); assay type: cell-based, human; conditions: 10 μM, about 6 days; for CD8 Hit: anti-CD3/anti-CD28 beads, hit = Z-score > +2 for percent or absolute number CCR7+CD62L+ in CD8+; for number or ratio of cells co-expressing CCR7 and CD62L: viable CD8+ population
Text: (§1) In Vitro T Cell Culture. Fresh leukopaks (AllCells, Alameda, CA) were obtained from healthy donors, from which T cells were negatively selected using the EasySep Human T cell Enrichment Kit (Stem Cell Technologies, Vancouver, Canada). The freshly isolated T cells were aliquoted and cryopreserved. On the day the screens were initiated, T cells were thawed and washed into X-Vivo 15 with 5% human AB serum, IL-2, pen/strep, and additional supplements. Cells were dispensed into flat-bottom 384-well plates at 5×10^5 cells/ml with anti-CD3/anti-CD28 beads. Individual compounds were added at a final concentration of 10 μM to each well from column 3 to column 22 of each plate. Positive and negative controls were added to additional wells. Cells were incubated for about 6 days at 37 degrees with 5% CO2.
(§2) Flow Cytometry. On Day 6 of culture, cells were stained with a fixable viability marker and fluorophore-conjugated antibodies: CD3, CD4, CD8, CD45RA, CD45RO, CD62L, CCR7, CD27, and CD122 (BD Biosciences, San Jose, CA; and BioLegend, San Diego, CA). Fluorescent absolute counting beads (Spherotech, Lake Forest, IL) were added just prior to acquisition. Data acquisition was performed on a BD Fortessa X-20 (BD Biosciences) and data were analyzed using Treestar software (FlowJo, Ashland, OR) and Spotfire (Tibco, Boston, MA).
(§3) These cells are characterized by expression of CCR7 and CD62L. Therefore, cells co-expressing both of these identifying markers were evaluated. Within the viable CD4+ population and viable CD8+ population, the percent of cells co-expressing CCR7 and CD62L was determined. The expression of either CD62L or CCR7 on T cells, as indicative of the desired T cell subsets, have been described as having favorable functional characteristics for CAR-T cell therapy, and potentially other adoptive T cell therapies.
(§4) The number of events in each of these gates relative to the number of absolute counting beads in each sample was calculated, defining a measure of the absolute number of naïve, stem cell memory, or central memory T cells within the CD4+ and/or CD8+ populations. A z-Score relative to the screened compound samples within each 384-well plate was calculated for each of these four values: 1) percent CCR7+CD62L+in CD4+, 2) percent CCR7+CD62L+in CD8+, 3) absolute relative number of CCR7+CD62L+in CD4+, and 4) absolute number of CCR7+CD62L+in CD8+(FIGS. 1A and 1i). Z-scores were also calculated for the percent viability of all cells within each sample and the relative absolute number of cells within each sample. A “Z-Score” is a statistical measurement of a score's relationship to the mean in a group of scores. AZ-score of 0 means the score is the same as the mean. AZ-score can also be positive or negative, indicating whether it is above or below the mean and by how many standard deviations.

viable CD4+ population = assay: T cell compound screen: CCR7+CD62L+ cells in the viable CD4+ population (flow cytometry); assay type: cell-based, human; conditions: 10 μM, about 6 days; for CD4 Hit: anti-CD3/anti-CD28 beads, hit = Z-score > +2 for percent or absolute number CCR7+CD62L+ in CD4+; for number or ratio of cells co-expressing CCR7 and CD62L: viable CD4+ population
Text: as §1, §2, §3, §4

Structure (SMILES): CC[n+]1c(/C=C/C=C2/N(C)c3ccccc3C2(C)C)sc2ccccc21.[I-] [AC-93253 iodide]
- CD8 Hit (viable CD8+ population): CD8
- number or ratio of cells co-expressing CCR7 and CD62L (viable CD8+ population): increased
- CD4 Hit (viable CD4+ population): CD4
- number or ratio of cells co-expressing CCR7 and CD62L (viable CD4+ population): increased

Structure (SMILES): C=CC1=C(C)c2cc3[nH]c(cc4nc(cc5[nH]c(cc1n2)c(C)c5CCC(=O)O)C(CCC(=O)O)=C4C)c(C)c3C=C [Protoporphyrin IX disodium]
- CD4 Hit (viable CD4+ population): CD4
- number or ratio of cells co-expressing CCR7 and CD62L (viable CD4+ population): increased

Structure (SMILES): COc1cc2nc(N3CCCN(C)CC3)nc(NC3CCN(Cc4ccccc4)CC3)c2cc1OC [BIX01294]
- CD4 Hit (viable CD4+ population): CD4
- number or ratio of cells co-expressing CCR7 and CD62L (viable CD4+ population): increased

Structure (SMILES): N#CC(=C(/N)Sc1ccccc1N)/C(C#N)=C(\N)Sc1ccccc1N [U0126]
- CD4 Hit (viable CD4+ population): CD4
- number or ratio of cells co-expressing CCR7 and CD62L (viable CD4+ population): increased

Structure (SMILES): CCCc1nc2c(C)cc(-c3nc4ccccc4n3C)cc2n1Cc1ccc(-c2ccccc2C(=O)O)cc1 [Telmisartan]
- CD4 Hit (viable CD4+ population): CD4
- number or ratio of cells co-expressing CCR7 and CD62L (viable CD4+ population): increased

Structure (SMILES): N.S=C(S)N1CCCC1 [1-Pyrrolidinecarbodithioic acid, ammonium salt]
- CD4 Hit (viable CD4+ population): CD4
- number or ratio of cells co-expressing CCR7 and CD62L (viable CD4+ population): increased

Structure (SMILES): CC(C)C1CCC2(CO2)C2C(=O)OCC(C(=O)O)=CC12 (stereo not drawn) [Heptelidic acid]
- CD8 Hit (viable CD8+ population): CD8
- number or ratio of cells co-expressing CCR7 and CD62L (viable CD8+ population): increased
- CD4 Hit (viable CD4+ population): CD4
- number or ratio of cells co-expressing CCR7 and CD62L (viable CD4+ population): increased

Structure (SMILES): Oc1c(I)cc(Cl)c2cccnc12 [8-Quinolinol, 5-chloro-7-iodo-]
- CD8 Hit (viable CD8+ population): CD8
- number or ratio of cells co-expressing CCR7 and CD62L (viable CD8+ population): increased
- CD4 Hit (viable CD4+ population): CD4
- number or ratio of cells co-expressing CCR7 and CD62L (viable CD4+ population): increased

Structure (SMILES): NC1CCN(c2nc3c(cc2F)c(=O)c(C(=O)O)cn3-c2ccc(F)cc2F)C1 (stereo not drawn) [Tosufloxacin hydrochloride]
- CD4 Hit (viable CD4+ population): CD4
- number or ratio of cells co-expressing CCR7 and CD62L (viable CD4+ population): increased

Structure (SMILES): CC(C)(C)c1ccc(C(O)CCCN2CCC(C(O)(c3ccccc3)c3ccccc3)CC2)cc1 (stereo not drawn) [Terfenadine]
- CD4 Hit (viable CD4+ population): CD4
- number or ratio of cells co-expressing CCR7 and CD62L (viable CD4+ population): increased

Structure (SMILES): CN(C)[C@@H]1C(=O)C(C(N)=O)=C(O)[C@@]2(O)C(=O)C3=C(O)c4c(O)ccc(Cl)c4[C@@H](O)[C@H]3C[C@@H]12.Cl [2-Naphthacenecarboxamide, 7-chloro-4-(dimethylamino)-1,4,4a,5,5a,6,11,12a-octahy]
- CD8 Hit (viable CD8+ population): CD8
- number or ratio of cells co-expressing CCR7 and CD62L (viable CD8+ population): increased

Structure (SMILES): Oc1c(Cl)cc(Cl)c2cccnc12 [8-Quinolinol, 5,7-dichloro-]
- CD8 Hit (viable CD8+ population): CD8
- number or ratio of cells co-expressing CCR7 and CD62L (viable CD8+ population): increased
- CD4 Hit (viable CD4+ population): CD4
- number or ratio of cells co-expressing CCR7 and CD62L (viable CD4+ population): increased

Structure (SMILES): C[C@]12CC[C@@H]3c4ccc(O)cc4C[C@@H](CCCCCCCCC[S+]([O-])CCCC(F)(F)C(F)(F)F)[C@H]3[C@@H]1CC[C@@H]2O (stereo partly drawn) [Fulvestrant]
- CD8 Hit (viable CD8+ population): CD8
- number or ratio of cells co-expressing CCR7 and CD62L (viable CD8+ population): increased

Structure (SMILES): CCCc1c(-c2ccc(O)cc2)nn(-c2ccc(O)cc2)c1-c1ccc(O)cc1 [1,3,5-tris(4-hydroxyphenyl)-4-propyl-1H-pyrazole]
- CD4 Hit (viable CD4+ population): CD4
- number or ratio of cells co-expressing CCR7 and CD62L (viable CD4+ population): increased

Structure (SMILES): CCC(CO)Nc1nc(NCc2ccccc2)c2ncn(C(C)C)c2n1 (stereo in doubt) [Roscovitine, (S)-Isomer]
- CD4 Hit (viable CD4+ population): CD4
- number or ratio of cells co-expressing CCR7 and CD62L (viable CD4+ population): increased

Structure (SMILES): O=C(O)CN(CCN(CC(=O)O)CC(=O)O)CCN(CC(=O)O)CC(=O)O [Diethylenetriaminepentaacetic acid, pentasodium]
- CD8 Hit (viable CD8+ population): CD8
- number or ratio of cells co-expressing CCR7 and CD62L (viable CD8+ population): increased
- CD4 Hit (viable CD4+ population): CD4
- number or ratio of cells co-expressing CCR7 and CD62L (viable CD4+ population): increased

Structure (SMILES): CC[N+](C)(C)c1cccc(O)c1 [Edrophonium chloride]
- CD8 Hit (viable CD8+ population): CD8
- number or ratio of cells co-expressing CCR7 and CD62L (viable CD8+ population): increased

Structure (SMILES): Oc1cccc(-c2nc(N3CCOCC3)c3oc4ncccc4c3n2)c1 [PI-103]
- CD8 Hit (viable CD8+ population): CD8
- number or ratio of cells co-expressing CCR7 and CD62L (viable CD8+ population): increased
- CD4 Hit (viable CD4+ population): CD4
- number or ratio of cells co-expressing CCR7 and CD62L (viable CD4+ population): increased

Structure (SMILES): O=C(N/N=C/c1ccc([N+](=O)[O-])o1)c1ccc(O)cc1 [Nifuroxazide]
- CD8 Hit (viable CD8+ population): CD8
- number or ratio of cells co-expressing CCR7 and CD62L (viable CD8+ population): increased

Structure (SMILES): C/C=C(/C)C(=O)O[C@H]1C(C)=C2[C@H]([C@@H]1OC(=O)CCCCCCC)[C@@](C)(OC(C)=O)C[C@H](OC(=O)CCC)[C@@]1(O)[C@H]2OC(=O)[C@@]1(C)O [Thapsigargin]
- CD8 Hit (viable CD8+ population): CD8
- number or ratio of cells co-expressing CCR7 and CD62L (viable CD8+ population): increased

Structure (SMILES): Sc1ncnc2nc[nH]c12 [6-Mercaptopurine]
- CD8 Hit (viable CD8+ population): CD8
- number or ratio of cells co-expressing CCR7 and CD62L (viable CD8+ population): increased
- CD4 Hit (viable CD4+ population): CD4
- number or ratio of cells co-expressing CCR7 and CD62L (viable CD4+ population): increased

Structure (SMILES): C=CCc1cccc(/C=N/NC(=O)CN2CCN(Cc3ccccc3)CC2)c1O [PAC-1]
- CD4 Hit (viable CD4+ population): CD4
- number or ratio of cells co-expressing CCR7 and CD62L (viable CD4+ population): increased

Structure (SMILES): CN[C@H]1CC[C@@H](c2ccc(Cl)c(Cl)c2)c2ccccc21 [Sertraline]
- CD8 Hit (viable CD8+ population): CD8
- CD4 Hit (viable CD4+ population): CD4

Structure (SMILES): Nc1ncn([C@@H]2O[C@H](CO)[C@@H](O)[C@H]2O)c(=O)n1 [5-Azacytidine]
- CD8 Hit (viable CD8+ population): CD8
- number or ratio of cells co-expressing CCR7 and CD62L (viable CD8+ population): increased
- CD4 Hit (viable CD4+ population): CD4
- number or ratio of cells co-expressing CCR7 and CD62L (viable CD4+ population): increased

Structure (SMILES): O=C(O)Cc1cc(I)c(Oc2ccc(O)c(I)c2)c(I)c1 [Tiratricol]
- CD8 Hit (viable CD8+ population): CD8
- number or ratio of cells co-expressing CCR7 and CD62L (viable CD8+ population): increased
- CD4 Hit (viable CD4+ population): CD4
- number or ratio of cells co-expressing CCR7 and CD62L (viable CD4+ population): increased

Structure (SMILES): COc1ccc(-c2cc3nccn3c(Nc3ncccc3C(N)=O)n2)cc1OC [BAY 61-3606]
- CD4 Hit (viable CD4+ population): CD4
- number or ratio of cells co-expressing CCR7 and CD62L (viable CD4+ population): increased

Structure (SMILES): CN(C)c1ccc(C=C2C(=O)Nc3ccccc32)cc1 [SU 4312]
- CD8 Hit (viable CD8+ population): CD8
- number or ratio of cells co-expressing CCR7 and CD62L (viable CD8+ population): increased
